Source: patent US4556517A, “Carbapenem derivatives” (Shionogi & Co., Ltd., priority 1981, dated 1985)
≈ marks a conversion by molar mass, not a printed value.

Experiments:
[1] = molecular target: β-lactamase of Enterobacter cloacae 92 (cephalosporinase type) (Enterobacter cloacae, UniProt P05364); test: β-Lactamase inhibitory test, cephalosporinase-type; type: biochemical; settings: 10 minutes preincubation, room temperature, minimum concentration to inhibit color change of indicator
Experimental: *1 producing lactamase of cephalosporinasetype
(§1) *3 The test compound was incubated with enzyme at room temperature for 10
(§2) minutes prior to adding an indicator and the minimum concentration to
(§3) inhibit color change was determined.

[2] = tested on: Staphylococcus aureus 209P JC-1; test: Antibacterial Spectrum, agar dilution method; type: cell-based; settings: inoculum 10^6 cells/ml, sensitivity disc agar, 37° C. overnight, read-out: Minimum Inhibitory Concentration
Experimental: (§4) Determined by agar dilution method;
(§5) Inoculum size is 10^6 cells/ml;
(§6) Cultivation in sensitivitydisc agar at 37° C. overnight.

[3] = tested on: Streptococcus pneumoniae I; test: Antibacterial Spectrum, agar dilution method; type: cell-based; settings: inoculum 10^6 cells/ml, sensitivity disc agar, 37° C. overnight, read-out: Minimum Inhibitory Concentration
Experimental: as §4, §5, §6

[4] = tested on: Pseudomonas aeruginosa ATCC 25619; test: Antibacterial Spectrum, agar dilution method; type: cell-based; settings: ATCC25619, inoculum 10^6 cells/ml, sensitivity disc agar, 37° C. overnight, read-out: Minimum Inhibitory Concentration
Experimental: as §4, §5, §6

[5] = tested on: Klebsiella sp. 363(R); test: Antibacterial Spectrum, agar dilution method; type: cell-based; settings: inoculum 10^6 cells/ml, sensitivity disc agar, 37° C. overnight, read-out: Minimum Inhibitory Concentration
Experimental: as §4, §5, §6

[6] = tested on: Escherichia coli NIHJ JC-2; test: Antibacterial Spectrum, agar dilution method; type: cell-based; settings: NIHJJC2, inoculum 10^6 cells/ml, sensitivity disc agar, 37° C. overnight, read-out: Minimum Inhibitory Concentration
Experimental: as §4, §5, §6

[7] = tested on: Proteus mirabilis PR-4; test: Antibacterial Spectrum, agar dilution method; type: cell-based; settings: PR4, inoculum 10^6 cells/ml, sensitivity disc agar, 37° C. overnight, read-out: Minimum Inhibitory Concentration
Experimental: as §4, §5, §6

[8] = tested on: Enterobacter cloacae 233; test: Antibacterial Spectrum, agar dilution method; type: cell-based; settings: inoculum 10^6 cells/ml, sensitivity disc agar, 37° C. overnight, read-out: Minimum Inhibitory Concentration
Experimental: as §4, §5, §6

[9] = tested on: Klebsiella pneumoniae SRL-1; test: Antibacterial Spectrum, agar dilution method; type: cell-based; settings: SRL1, inoculum 10^6 cells/ml, sensitivity disc agar, 37° C. overnight, read-out: Minimum Inhibitory Concentration
Experimental: as §4, §5, §6

[10] = tested on: β-lactamase of Klebsiella sp. 363 (penicillinase type); test: β-Lactamase inhibitory test, penicillinase-type; type: biochemical; settings: 10 minutes preincubation, room temperature, minimum concentration to inhibit color change of indicator
Experimental: *2 producing lactamase of penicillinasetype
as §1, §2, §3

β-lactamase of Enterobacter cloacae 92 (cephalosporinase type), sequence (P05364 21-381): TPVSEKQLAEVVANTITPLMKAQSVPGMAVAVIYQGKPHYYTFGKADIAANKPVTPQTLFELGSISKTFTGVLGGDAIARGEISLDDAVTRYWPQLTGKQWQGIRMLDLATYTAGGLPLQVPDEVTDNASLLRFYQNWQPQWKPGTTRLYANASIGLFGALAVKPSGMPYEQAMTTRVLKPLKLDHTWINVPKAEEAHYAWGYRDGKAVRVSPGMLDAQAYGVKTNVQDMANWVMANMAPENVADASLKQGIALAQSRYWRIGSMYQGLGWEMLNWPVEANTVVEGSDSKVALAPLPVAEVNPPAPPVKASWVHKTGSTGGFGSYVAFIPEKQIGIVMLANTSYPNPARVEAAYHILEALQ

SMILES | Minimum Effective Concentration [1] [µg/mL] | MIC [2] [µg/mL] | MIC [3] [µg/mL] | MIC [4] [µg/mL] | MIC [5] [µg/mL] | MIC [6] [µg/mL] | MIC [7] [µg/mL] | MIC [8] [µg/mL] | MIC [9] [µg/mL] | Minimum Effective Concentration [10] [µg/mL]
CC(OS(=O)(=O)O)C1C(=O)N2C(C(=O)O)=C(SCC(=O)O)CC12 (stereo not drawn) [Deoxy PLM B, 3-Carboxymethylthio-6-(1-hydroxysulfonyloxyethyl)-7-oxo-1-azabicyclo[3.2.0]-hept-2-ene-2-carboxylic acid] | 0.002 | 3.13 (≈ 8.52 µM) | 1.56 (≈ 4.25 µM) | > 100 | 1.56 (≈ 4.25 µM) | 1.56 (≈ 4.25 µM) | 0.78 (≈ 2.12 µM) | 6.25 (≈ 17 µM) | 0.78 (≈ 2.12 µM) | 0.063
CC(OS(=O)(=O)O)C1C(=O)N2C(C(=O)O)=C(SC(O)O)CC12 (stereo not drawn) [Deoxy PLM C, 3-dihydroxymethylthio-6-(1-hydroxysulfonyloxyethyl)-7-oxo-1-azabicyclo[3.2.0]-hept-2-ene-2-carboxylic acid] | 0.002 | 0.78 (≈ 2.2 µM) | 0.2 (≈ 0.563 µM) | > 100 | 0.78 (≈ 2.2 µM) | 0.78 (≈ 2.2 µM) | 0.78 (≈ 2.2 µM) | 3.13 (≈ 8.81 µM) | 0.78 (≈ 2.2 µM) | 0.125
CC(OS(=O)(=O)O)C1C(=O)N2C(C(=O)O)=C([S+]([O-])CO)CC12 (stereo not drawn) [Dihydro PLM C, 3-hydroxymethylsulfinyl-6-(1-hydroxysulfonyloxyethyl)-7-oxo-1-azabicyclo[3.2.0]-hept-2-ene-2-carboxylic acid] | 0.008 | 12.5 (≈ 35.2 µM) | 3.1 (≈ 8.72 µM) | > 100 | 12.5 (≈ 35.2 µM) | 12.5 (≈ 35.2 µM) | 25 (≈ 70.4 µM) | > 100 | 25 (≈ 70.4 µM) | 0.004
